Results on 19 compounds are retold here after patent US20250129103A1, “METHODS FOR TREATMENT OF CANCER” (Frontier Medicines Corporation, priority 2022, published 2025).

In brackets after ≈: the same amount, converted by molar mass.

For series [1], the target named is KRAS G12C (GMPPNP-loaded) and cRAF (Ras-binding domain) interaction (Homo sapiens (Human), UniProt P01116, C118S/C51S/C80L/G12C). Put plainly: Inhibition of KRAS G12C and cRAF binding (AlphaScreen). The note with it: KRAS G12C loaded with GMPPNP, cRaf RBD, 2 hours preincubation; read-out: Raf-1 RBD K-Ras IC50. The method, boiled down: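 AlphaScreen readout (680 nm excitation, 570 nm emission) of RBD binding after a 60-90 min bead step at room temperature. This step follows 2 h compound exposure of GMPPNP-preloaded KRAS G12C in Hepes pH 7.4 buffer with MgCl2 and 10 μM GMPPNP.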
(Alpha assays give light when donor and acceptor beads are brought close together.)

Series [2] concerns the target KRAS G12C (GMPPNP-loaded) and PI3Ka (Ras-binding domain) interaction (Homo sapiens (Human), UniProt P01116, C118S/C51S/C80L/G12C). Put plainly: Inhibition of KRAS G12C and PI3Ka binding (AlphaScreen). The following applies: KRAS G12C loaded with GMPPNP, PI3Ka RBD, 2 hours preincubation; read-out: PI3K RBD K-Ras IC50. The method, boiled down: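 Biotin-AviTag Cys-light KRAS G12C (aa 1-169, C51S/C80L/C118S), GMPPNP-loaded, 1.5 nM, preincubated 2 h with compound, then His-tagged PI3Ka RBD (aa 157-300, 100 nM) plus AlphaScreen beads added for 60-90 min, RT. Buffer Hepes pH 7.4, 10 μM GMPPNP, 2% DMSO; 10-point 1:3 from 50 μM; 4-parameter IC50.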

A short description of series [3]: Determination of logD (1-octanol / phosphate buffer pH 7.4). It counts as physicochemical. The following applies: 1-octanol/phosphate buffer, pH 7.4, pH 7.4, 1-octanol/phosphate buffer; read-out: Log D, pH 7.4. A digest of the protocol: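 Each phase analysed by LCMS after 1 h shaking at 800 rpm and centrifugation, room temperature. Phases were mutually saturated 1-octanol and 100 mM phosphate buffer at pH 7.4. LogD derived from the phase concentrations.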

The nature of series [4]: Determination of kinetic solubility (pH 7.4). Format: physicochemical. The note with it: phosphate buffer, pH 7.4, aqueous buffer, kinetic from dmso stock, 50 mM phosphate buffer pH 7.4, read-out: Ksol, pH 7.4. The method, boiled down:
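Solubility taken from filtrate peak areas on a calibration curve (HPLC-UV, LC-MS/MS). Before filtration and centrifugation, compound was shaken for 2 h at room temperature in pH 7.4 50 mM phosphate buffer.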

Sequence of KRAS G12C (GMPPNP-loaded) and cRAF (Ras-binding domain) interaction (P01116 other isoform, or with tags, fused parts or gaps G12C/C51S/C80L/C118S): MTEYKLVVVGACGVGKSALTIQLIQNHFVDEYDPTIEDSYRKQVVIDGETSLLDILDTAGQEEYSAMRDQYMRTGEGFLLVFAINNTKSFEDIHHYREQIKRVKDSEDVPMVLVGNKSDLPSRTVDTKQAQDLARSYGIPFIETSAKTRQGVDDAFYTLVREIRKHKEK
Sequence of KRAS G12C (GMPPNP-loaded) and PI3Ka (Ras-binding domain) interaction (P01116 other isoform, or with tags, fused parts or gaps G12C/C51S/C80L/C118S): as above

The IC50 is the point on the concentration scale where inhibition reaches its midpoint. For `Cc1nsc(/C=C/C(=O)N2CCN(c3nc(OCC45CCCN4CCC5)nc4c3CCN(c3cccc5ccc(F)c(Cl)c35)C4)C[C@@H]2CC#N)n1` [Compound 141], the IC50 in series [1] and in series [2] was under 10 nM in each case. Further, the logD in series [3] came to 3.43. In series [4], the solubility kinetic at 2 h was found to be 84 µg/mL (≈ 115 µM).

With `N#CC[C@H]1CN(c2nc(OC[C@@]34CCCN3C[C@H](F)C4)nc3c(F)c(-c4cccc5cccc(Cl)c45)ncc23)CCN1C(=O)/C=C/CN1CC2CCC(C1)O2` [Example 81, 2-((2S)-1-((E)-4-(8-oxa-3-azabicyclo[3.2.1]octan-3-yl)but-2-enoyl)-4-(7-(8-chloronaphthalen-1-yl)-8-fluoro-2-(((2R,7aS)-2-fluorohexahydro-1H-pyrrolizin-7a-yl)methoxy)pyrido[4,3-d]pyrimidin-4-yl)piperazin-2-yl)acetonitrile], the IC50 in series [1] and in series [2] was under 10 nM each time. Besides, the logD in series [3] was 3.7. For the same compound, in series [4], the solubility kinetic at 2 h came out at 74.4 µg/mL (≈ 96.7 µM).

With `CCc1c(F)ccc2cccc(-c3ncc4c(N5CCN(C(=O)/C=C/CN6CCOCC6)[C@@H](CC#N)C5)nc(OC[C@@]56CCCN5C[C@H](F)C6)nc4c3F)c12` [Compound 226], the IC50 was 10 to 100 nM in series [1] and under 10 nM in series [2]. Also, in series [3], the logD is 2.63. Further, the solubility kinetic at 2 h in series [4] was determined as 103 µg/mL (≈ 137 µM).

Take `N#CC[C@H]1CN(c2nc(OC[C@@]34CCCN3C[C@H](F)C4)nc3c(F)c(-c4cccc5ccc(F)c(Cl)c45)ncc23)CCN1C(=O)/C=C/c1ccnc(C2CC2)n1` [Compound 208]: the IC50 in series [1] and in series [2] was under 10 nM each time. Besides, the logD in series [3] was 4.2. Also, the solubility kinetic at 2 h in series [4] is 0.01 µg/mL (≈ 0.0128 µM).

As to `N#CC[C@H]1CN(c2nc(OC[C@@]34CCCN3C[C@H](F)C4)nc3c(F)c(-c4cccc(Cl)c4C(F)(F)F)ncc23)CCN1C(=O)/C=C/CN1CCCOCC1` [Compound 113, 2-((S)-1-((E)-4-(1,4-oxazepan-4-yl)but-2-enoyl)-4-(7-(3-chloro-2-(trifluoromethyl)phenyl)-8-fluoro-2-(((2R,7aS)-2-fluorotetrahydro-1H-pyrrolizin-7a(5H)-yl)methoxy)pyrido[4,3-d]pyrimidin-4-yl)piperazin-2-yl)acetonitrile], the IC50 in series [1] and in series [2] was under 10 nM throughout. The logD in series [3] was 2.84. Moreover, in series [4], the solubility kinetic at 2 h stood at 124 µg/mL (≈ 160 µM).

As to `N#CC[C@H]1CN(c2nc(OC[C@@]34CCCN3C[C@H](F)C4)nc3c(F)c(-c4cccc5ccc(F)c(Cl)c45)ncc23)CCN1C(=O)/C=C/CN1[C@@H]2CC[C@H]1COC2` [Example 79, 2-((S)-1-((E)-4-((1R,5S)-3-oxa-8-azabicyclo[3.2.1]octan-8-yl)but-2-enoyl)-4-(7-(8-chloro-7-fluoronaphthalen-1-yl)-8-fluoro-2-(((2R,7aS)-2-fluorotetrahydro-1H-pyrrolizin-7a(5H)-yl)methoxy)pyrido[4,3-d]pyrimidin-4-yl)piperazin-2-yl)acetonitrile], the IC50 in series [1] and in series [2] was under 10 nM each time. Moreover, in series [3], the logD came out at 3.53. Besides, the solubility kinetic at 2 h in series [4] worked out at 155 µg/mL (≈ 197 µM).

As to `CCc1noc(/C=C/C(=O)N2CCN(c3nc(OCC45CCCN4CCC5)nc4c3CCN(c3cccc5cccc(Cl)c35)C4)C[C@@H]2CC#N)n1` [Compound 25], the IC50 was over 500 nM in series [1] and at least 500 nM in series [2]. In addition, in series [3], the logD amounted to 4.9. In addition, in series [4], the solubility kinetic at 2 h was 0.01 µg/mL (≈ 0.0141 µM).

On to `N#CC[C@H]1CN(c2nc(OC[C@@]34CCCN3C[C@H](F)C4)nc3c(F)c(-c4cccc5ccc(F)c(F)c45)ncc23)CCN1C(=O)/C=C/CN1CCOCC1` [Example 83, 2-((S)-4-(7-(7,8-difluoronaphthalen-1-yl)-8-fluoro-2-(((2R,7aS)-2-fluorotetrahydro-1H-pyrrolizin-7a(5H)-yl)methoxy)pyrido[4,3-d]pyrimidin-4-yl)-1-((E)-4-morpholinobut-2-enoyl)piperazin-2-yl)acetonitrile], for which the IC50 in series [1] and in series [2] was under 10 nM throughout. Also, the logD in series [3] was 2.98. The solubility kinetic at 2 h in series [4] is 93.4 µg/mL (≈ 125 µM).

On to `N#CC[C@H]1CN(c2nc(OCC34CCCN3CCC4)nc3c2CCN(c2cccc4cccc(Cl)c24)C3)CCN1C(=O)/C=C/c1ccncn1` [Example 10, (S,E)-2-(4-(7-(8-chloronaphthalen-1-yl)-2-((hexahydro-1H-pyrrolizin-7a-yl)methoxy)-5,6,7,8-tetrahydropyrido[3,4-d]pyrimidin-4-yl)-1-(3-(pyrimidin-4-yl)acryloyl)piperazin-2-yl)acetonitrile], for which the IC50 in series [1] and in series [2] was under 10 nM throughout. For the same compound, the logD in series [3] was determined as 2.93. Moreover, the solubility kinetic at 2 h in series [4] is 99 µg/mL (≈ 143 µM).

`N#CC[C@H]1CN(c2nc(OC[C@@]34CCCN3C[C@H](F)C4)nc3c(F)c(-c4cccc5cccc(Cl)c45)ncc23)CCN1C(=O)/C=C/CN1C[C@H]2COC[C@H]2C1` [Compound 228]: the IC50 in series [1] and in series [2] was under 10 nM throughout. In series [3], the logD was 3.08. In addition, the solubility kinetic at 2 h in series [4] is 94.8 µg/mL (≈ 123 µM).

As for `C#Cc1c(F)ccc2cccc(-c3ncc4c(N5CCN(C(=O)/C=C/CN6CCOCC6)[C@@H](CC#N)C5)nc(OC[C@@]56CCCN5C[C@H](F)C6)nc4c3F)c12` [Compound 255], the IC50 in series [1] and in series [2] was under 10 nM each time. The logD in series [3] was found to be 2.81. The solubility kinetic at 2 h in series [4] turned out to be 118 µg/mL (≈ 158 µM).

With `N#CC[C@H]1CN(c2nc(OC[C@@]34CCCN3C[C@H](F)C4)nc3c(F)c(-c4cccc5ccc(F)c(Cl)c45)ncc23)CCN1C(=O)/C=C/CN1CCOCC1` [Compound 53], the IC50 in series [1] and in series [2] was under 10 nM each time. Further, the logD in series [3] was 2.82. The solubility kinetic at 2 h in series [4] is 111 µg/mL (≈ 146 µM).

Consider `C[C@@H]1CN(C/C=C/C(=O)N2CCN(c3nc(OC[C@@]45CCCN4C[C@H](F)C5)nc4c(F)c(-c5cccc6cccc(Cl)c56)ncc34)C[C@@H]2CC#N)C[C@H](C)O1` [Compound 186], for which the IC50 in series [1] and in series [2] was 10 to 100 nM each time. Moreover, the logD in series [3] turned out to be 3.54. Also, the solubility kinetic at 2 h in series [4] turned out to be 89 µg/mL (≈ 115 µM).

Turning to `N#CC[C@H]1CN(c2nc(OC[C@@]34CCCN3C[C@H](F)C4)nc3c(F)c(-c4cccc5ccc(F)c(Cl)c45)ncc23)CCN1C(=O)/C=C/CN1CCCOCC1` [Example 70, 2-((S)-1-((E)-4-(1,4-oxazepan-4-yl)but-2-enoyl)-4-(7-(8-chloro-7-fluoronaphthalen-1-yl)-8-fluoro-2-(((2R,7aS)-2-fluorotetrahydro-1H-pyrrolizin-7a(5H)-yl)methoxy)pyrido[4,3-d]pyrimidin-4-yl)piperazin-2-yl)acetonitrile], the IC50 in series [1] and in series [2] was under 10 nM each time. Further, the logD in series [3] came to 3.25. Moreover, in series [4], the solubility kinetic at 2 h amounted to 124 µg/mL (≈ 160 µM).

Regarding `Cc1cc(N)nc([C@@H]2Cc3nc(OC[C@@]45CCCN4C[C@H](F)C5)nc(N4CCN(C(=O)/C=C/CN(C)C)[C@@H](CC#N)C4)c3C[C@H]2C)c1C(F)(F)F` [Compound 322], the IC50 in series [1] and in series [2] was under 10 nM in each case. Moreover, the logD in series [3] came to 2.79. Also, the solubility kinetic at 2 h in series [4] is 133 µg/mL (≈ 186 µM).

As to `COCCN(C)C/C=C/C(=O)N1CCN(c2nc(OC[C@@]34CCCN3C[C@H](F)C4)nc3c(F)c(-c4cccc5cccc(Cl)c45)ncc23)C[C@@H]1CC#N` [Compound 320], the IC50 in series [1] and in series [2] was under 10 nM in each case. Moreover, in series [3], the logD was 3.05. The solubility kinetic at 2 h in series [4] amounted to 104 µg/mL (≈ 139 µM).

Turning to `Cc1nsc(/C=C/C(=O)N2CCN(c3nc(OC[C@@]45CCCN4C[C@H](F)C5)nc4c3C[C@@H](C)[C@H](c3nc(N)cc(C)c3C(F)(F)F)C4)C[C@@H]2CC#N)n1` [Compound 192], the IC50 in series [1] and in series [2] was under 10 nM in each case. The logD in series [3] amounted to 4.69. For the same compound, in series [4], the solubility kinetic at 2 h was found to be 2.01 µg/mL (≈ 2.66 µM).

`N#CC[C@H]1CN(c2nc(OCC34CCCN3CCC4)nc3c2CCN(c2cccc4ccc(F)c(Cl)c24)C3)CCN1C(=O)/C=C/CN1CCOCC1` [Compound 50]: the IC50 in series [1] and in series [2] was under 10 nM each time. The logD in series [3] was determined as 2.27. Besides, the solubility kinetic at 2 h in series [4] was found to be 124 µg/mL (≈ 171 µM).

For the compound `N#CC[C@H]1CN(c2nc(OC[C@@]34CCCN3C[C@H](F)C4)nc3c2CCN(c2cccc4cccc(Cl)c24)C3)CCN1C(=O)/C=C/CN1CCOCC1` [Compound 49], the IC50 in series [1] and in series [2] was under 10 nM each time. Moreover, in series [3], the logD was determined as 3.72. Also, in series [4], the solubility kinetic at 2 h turned out to be 45.2 µg/mL (≈ 62 µM).
